Reference: ChEMBL document CHEMBL1129847, “2-[(substituted)phenyl]-5-[1-(2-phenylazacycloheptyl)methyl]-1H-pyrroles with high affinity and selectivity for the dopamine D3 receptor” (Bioorg Med Chem Lett, 1997)

Columns and labels:
[1] = target: D(3) dopamine receptor (Homo sapiens, UniProt P35462); assay: Ability to displace [125I]-sulpiride from human Dopamine receptor D3, expressed in CHO cells; format: cell-based
[2] = target: D(2) dopamine receptor (Homo sapiens, UniProt P14416); assay: Ability to displace [125I]sulpiride from human Dopamine receptor D2, expressed in CHO cells; format: cell-based
D(2) dopamine receptor, sequence (P14416 whole entry): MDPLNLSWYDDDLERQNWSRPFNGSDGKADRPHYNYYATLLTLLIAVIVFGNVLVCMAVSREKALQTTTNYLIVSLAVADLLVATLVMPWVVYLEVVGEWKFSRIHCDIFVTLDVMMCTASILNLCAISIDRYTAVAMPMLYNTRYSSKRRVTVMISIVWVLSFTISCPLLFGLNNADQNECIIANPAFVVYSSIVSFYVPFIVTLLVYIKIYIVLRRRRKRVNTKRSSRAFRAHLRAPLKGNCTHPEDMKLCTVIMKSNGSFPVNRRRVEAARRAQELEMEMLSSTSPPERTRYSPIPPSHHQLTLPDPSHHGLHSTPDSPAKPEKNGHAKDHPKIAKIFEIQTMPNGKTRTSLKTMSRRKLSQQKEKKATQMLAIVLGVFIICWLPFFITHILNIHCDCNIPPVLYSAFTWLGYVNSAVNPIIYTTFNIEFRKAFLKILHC

[3] = target: Dopamine receptors; D2 & D3 (Homo sapiens) (UniProt P14416+P35462); assay: Ratio of human dopamine D3 receptor to that of human dopamine D2 receptor was evaluated; format: protein assay

D(3) dopamine receptor, sequence (P35462 whole entry): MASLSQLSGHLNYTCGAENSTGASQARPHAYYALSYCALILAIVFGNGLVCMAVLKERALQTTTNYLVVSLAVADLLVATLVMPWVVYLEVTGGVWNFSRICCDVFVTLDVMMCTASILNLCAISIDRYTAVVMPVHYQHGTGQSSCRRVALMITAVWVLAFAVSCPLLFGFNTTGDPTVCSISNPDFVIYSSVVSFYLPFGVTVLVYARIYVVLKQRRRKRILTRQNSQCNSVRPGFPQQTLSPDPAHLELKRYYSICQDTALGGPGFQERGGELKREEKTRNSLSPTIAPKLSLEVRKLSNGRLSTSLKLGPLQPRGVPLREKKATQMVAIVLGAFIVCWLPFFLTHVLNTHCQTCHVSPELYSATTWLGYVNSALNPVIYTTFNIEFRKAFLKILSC

Compound `COc1ccc(S(=O)(=O)Nc2ccccc2)cc1-c1ccc(CN2CCCCCC2c2ccccc2)[nH]1` (stereo unspecified) has a Ki [1] of 0.0794 µM, a Ki [2] of 0.631 µM and a Selectivity [3] of 8.
`COc1ccc(S(=O)(=O)Cc2ccccc2)cc1-c1ccc(CN2CCCCCC2c2ccccc2)[nH]1` (stereo unspecified) gave a Ki [1] of 0.00398 µM, a Ki [2] of 0.126 µM and a Selectivity [3] of 30.
Work on `CCS(=O)(=O)c1ccc(OC)c(-c2ccc(CN3CCCCC[C@H]3c3ccccc3)[nH]2)c1` yielded a Ki [1] of 0.00398 µM, a Ki [2] of 0.1 µM and a Selectivity [3] of 25.
In the case of `CCS(=O)(=O)c1ccc(OC)c(-c2ccc(CN3CCCCCC3c3ccccc3)[nH]2)c1` (stereo unspecified), the Selectivity [3] is reported as 30.
With `CCS(=O)(=O)c1ccc(OC)c(-c2ccc(CN3CCCCC[C@@H]3c3ccccc3)[nH]2)c1` the Ki [1] was 0.000794 µM, the Ki [2] was 0.0251 µM and the Selectivity [3] was 30.
`COc1ccc(S(=O)(=O)N(C)c2ccccc2)cc1-c1ccc(CN2CCCCC[C@H]2c2ccccc2)[nH]1` was tested, and the Ki [1] was 0.0158 µM, the Ki [2] was 1.58 µM and the Selectivity [3] was 100.
Work on `COc1ccc(S(=O)(=O)N2CCc3ccccc3C2)cc1-c1ccc(CN2CCCCCC2c2ccccc2)[nH]1` (stereo unspecified) yielded a Ki [1] of 0.002 µM, a Ki [2] of 0.2 µM and a Selectivity [3] of 100.
In the case of `COc1ccc(S(=O)(=O)N2CCCc3ccccc32)cc1-c1ccc(CN2CCCCCC2c2ccccc2)[nH]1` (stereo unspecified), the Ki [1] is reported as 0.00631 µM, the Ki [2] is reported as 1 µM and the Selectivity [3] is reported as 150.
Compound `COc1ccc(S(=O)(=O)N(C)c2ccccc2)cc1-c1ccc(CN2CCCCCC2c2ccccc2)[nH]1` (stereo unspecified) has a Ki [1] of 0.00631 µM, a Ki [2] of 0.631 µM and a Selectivity [3] of 100.
`COc1ccc(S(N)(=O)=O)cc1-c1ccc(CN2CCCCCC2c2ccccc2)[nH]1` (stereo unspecified) showed a Ki [1] of 0.0398 µM, a Ki [2] of 0.398 µM and a Selectivity [3] of 10.
Work on `COc1ccc(S(=O)(=O)N(C)c2ccccc2)cc1-c1ccc(CN2CCCCC[C@@H]2c2ccccc2)[nH]1` yielded a Ki [1] of 0.00398 µM, a Ki [2] of 0.501 µM and a Selectivity [3] of 125.
With `COc1ccc(S(=O)(=O)C(C)C)cc1-c1ccc(CN2CCCCCC2c2ccccc2)[nH]1` (stereo unspecified) the Ki [1] was 0.00501 µM, the Ki [2] was 0.2 µM and the Selectivity [3] was 40.
Compound `COc1ccc(S(=O)(=O)Oc2ccccc2)cc1-c1ccc(CN2CCCCCC2c2ccccc2)[nH]1` (stereo unspecified) has a Ki [1] of 0.01 µM, a Ki [2] of 1 µM and a Selectivity [3] of 100.
`COc1ccc(S(=O)(=O)N(C)C)cc1-c1ccc(CN2CCCCCC2c2ccccc2)[nH]1` (stereo unspecified) was tested, and the Ki [1] was 0.002 µM, the Ki [2] was 0.1 µM and the Selectivity [3] was 50.
With `CCN(Cc1ccccc1)S(=O)(=O)c1ccc(OC)c(-c2ccc(CN3CCCCCC3c3ccccc3)[nH]2)c1` (stereo unspecified) the Ki [1] was 0.00631 µM, the Ki [2] was 0.501 µM and the Selectivity [3] was 80.
In the case of `COc1ccc(S(=O)(=O)N2CCOCC2)cc1-c1ccc(CN2CCCCCC2c2ccccc2)[nH]1` (stereo unspecified), the Ki [1] is reported as 0.00158 µM, the Ki [2] is reported as 0.1 µM and the Selectivity [3] is reported as 60.
